Laboratory results published in US20040147574A1, “Isothiazole derivatives” (Pfizer Inc, priority 2003, published 2004).

Molecular target: T1, TβRII kinase (Homo sapiens, UniProt P37173)
T1 construct: cytoplasmic domain of TβRII-amino acids 193-567 with A to V change at 438
T1 sequence (P37173 193-567): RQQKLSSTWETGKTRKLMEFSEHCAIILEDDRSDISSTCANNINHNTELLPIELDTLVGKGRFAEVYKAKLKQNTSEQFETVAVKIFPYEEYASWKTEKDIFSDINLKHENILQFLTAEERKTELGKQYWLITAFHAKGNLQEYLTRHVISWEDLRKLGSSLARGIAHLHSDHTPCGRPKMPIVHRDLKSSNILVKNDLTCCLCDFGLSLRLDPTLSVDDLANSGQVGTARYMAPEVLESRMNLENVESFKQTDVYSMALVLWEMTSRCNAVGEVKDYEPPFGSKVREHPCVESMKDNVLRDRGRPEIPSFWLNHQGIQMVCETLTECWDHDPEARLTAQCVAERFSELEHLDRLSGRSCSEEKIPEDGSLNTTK
Test: TGF-β Type II Receptor (TβRII) kinase assay: phosphorylation of myelin basic protein
Assay type: biochemical
Conditions: GST-TβRII 27 nanomolar, MBP 3 micromolar, ATP 0.25 micromolar, 90 minutes at room temperature
Description: Phosphorylation of myelin basic protein (MBP) by the TβRII kinase was measured as follows: 80 microliters of MBP (Upstate Biotechnology #13-104) diluted in kinase reaction buffer (KRB) containing 50 mM MOPS, 5 mM MgCl2, pH 7.2 to yield a final concentration of 3 micromolar MBP was added to each well of a Millipore 96-well multiscreen-DP 0.65 micron filtration plate (#MADPNOB50). 20 microliters of inhibitor diluted in KRB was added to appropriate wells to yield the desired final concentration (10-0.03 micromolar). 10 microliters of a mixture of ATP (Sigma #A-5394) and ^33P-ATP (Perkin Elmer #NEG/602H) diluted in KRB was added to yield a final concentration of 0.25 micromolar ATP and 0.02 microcuries of ^33P-ATP per well. 10 microliters of a GST-TβRII fusion protein (glutathione S-transferase at the N-terminal end of the cytoplasmic domain of TβRII-amino acids 193-567 with A to V change at 438) diluted in KRB was added to each well to yield a final concentration of 27 nanomolar GST-TβRII. Plates were mixed and incubated for 90 minutes at room temperature. After the reaction incubation, 100 microliters of cold 20% trichloroacetic acid (Aldrich #25,139-9) was added per well and plates were mixed and incubated for 60 minutes at 4° C. Liquid was then removed from the wells using a Millipore vacuum manifold. Plates were washed once with 200 microliters per well of cold 10% trichloroacetic acid followed by two washes with 100 microliters per well of cold 10% trichloroacetic acid. Plates were allowed to dry overnight at room temperature. 20 microliters of Wallac OptiPhase SuperMix scintillation cocktail was added to each well. Plates were sealed and counted using a Wallac 1450 Microbeta liquid scintillation counter. The potency of inhibitors was determined by their ability to reduce TβRII-mediated phosphorylation of the MBP substrate.

In order of rising IC50:
1. NC(=O)c1c(OCc2cccnc2)nsc1NC(=O)NCCO [Example 23, 5-[3-(2-Hydroxy-ethyl)-ureido]-3-(pyridin-3-ylmethoxy)-isothiazole-4-carboxylic acid amide]  349 nM
2. NC(=O)c1c(OCc2cccnc2)nsc1NC(=O)NCCCN1CCOCC1 [Example 15, 5-[3-(3-Morpholin-4-yl-propyl)-ureido]-3-(pyridin-3-ylmethoxy)-isothiazole-4-carboxylic acid amide]  437 nM
3. CN1CCCC1CCNC(=O)Nc1snc(OCc2cccnc2)c1C(N)=O (stereo not drawn) [Example 19, 5-{3-[2-(1-Methyl-pyrrolidin-2-yl)-ethyl]-ureido}-3-(pyridin-3-ylmethoxy)-isothiazole-4-carboxylic acid amide]  457 nM
4. COc1cccc(OC)c1CNC(=O)Nc1snc(OC(C)c2cccnc2)c1C(N)=O (stereo not drawn) [Example 26, 5-[3-(2,6-Dimethoxy-benzyl)-ureido]-3-(1-pyridin-3-yl-ethoxy)-isothiazole-4-carboxylic acid amide]  502 nM
5. CCOc1ccc(CCNC(=O)Nc2snc(OCc3cccnc3)c2C(N)=O)cc1OC [Example 14, 5-{3-[2-(4-Ethoxy-3-methoxy-phenyl)-ethyl]-ureido}-3-(pyridin-3-ylmethoxy)-isothiazole-4-carboxylic acid amide]  551 nM
6. CCC(O)CNC(=O)Nc1snc(OCc2cccnc2)c1C(N)=O (stereo not drawn) [Example 24, 5-[3-(2-Hydroxy-butyl)-ureido]-3-(pyridin-3-ylmethoxy)-isothiazole-4-carboxylic acid amide]  669 nM
7. CNC(=O)Nc1snc(OC(C)c2cccnc2)c1C(N)=O (stereo not drawn) [Example 27, 5-(3-Methyl-ureido)-3-(1-pyridin-3-yl-ethoxy)-isothiazole-4-carboxylic acid amide]  710 nM
8. NC(=O)c1c(OCc2cccnc2)nsc1NC(=O)NC[C@H]1CCCCCC[C@H]1O [Example 22, (R),(R)-5-[3-(2-Hydroxy-cyclooctylmethyl)-ureido]-3-(pyridin-3-ylmethoxy)-isothiazole-4-carboxylic acid amide]  753 nM
9. COc1ccc(CCNC(=O)Nc2snc(OCc3cccnc3)c2C(N)=O)cc1OC [Example 6, 5-{3-[2-(3,4-Dimethoxy-phenyl)-ethyl]-ureido}-3-(pyridin-3-ylmethoxy)-isothiazole-4-carboxylic acid amide]  754 nM
10. NC(=O)c1c(OCc2cccnc2)nsc1NC(=O)NC[C@H]1CCCCC[C@H]1O [Example 21, (R),(R)-5-[3-(2-Hydroxy-cycloheptylmethyl)-ureido]-3-(pyridin-3-ylmethoxy)-isothiazole-4-carboxylic acid amide]  759 nM
11. CN(C)CCCNC(=O)Nc1snc(OCc2cccnc2)c1C(N)=O [Example 18, 5-[3-(3-Dimethylamino-propyl)-ureido]-3-(pyridin-3-ylmethoxy)-isothiazole-4-carboxylic acid amide]  801 nM
12. NC(=O)c1c(OCc2cccnc2)nsc1NC(=O)NCCN1CCOCC1 [Example 16, 5-[3-(2-Morpholin-4-yl-ethyl)-ureido]-3-(pyridin-3-ylmethoxy)-isothiazole-4-carboxylic acid amide]  855 nM
13. NC(=O)c1c(OCc2cccnc2)nsc1NC(=O)NCCc1ccccc1 [Example 7, 5-(3-Phenethyl-ureido)-3-(pyridin-3-ylmethoxy)-isothiazole-4-carboxylic acid amide]  940 nM
14. CC1CCCCN1CCCNC(=O)Nc1snc(OCc2cccnc2)c1C(N)=O (stereo not drawn) [Example 20, 5-{3-[3-(2-Methyl-piperidin-1-yl)-propyl]-ureido}-3-(pyridin-3-ylmethoxy)-isothiazole-4-carboxylic acid amide]  966 nM
15. NC(=O)c1c(OCc2cccnc2)nsc1NC(=O)NCCc1cccc(F)c1 [Example 13, 5-{3-[2-(3-Fluoro-phenyl)-ethyl]-ureido}-3-(pyridin-3-ylmethoxy)-isothiazole-4-carboxylic acid amide]  1480 nM
16. Cc1ccc(C)c(CNC(=O)Nc2snc(OCc3cccnc3)c2C(N)=O)c1 [Example 4, 5-[3-(2,5-Dimethyl-benzyl)-ureido]-3-(pyridin-3-ylmethoxy)-isothiazole-4-carboxylic acid amide]  1600 nM
17. NC(=O)c1c(OCc2cccnc2)nsc1NC(=O)NCCC1=CCCCC1 [Example 3, 5-[3-(2-Cyclohex-1-enyl-ethyl)-ureido]-3-(pyridin-3-ylmethoxy)-isothiazole-4-carboxylic acid amide]  1610 nM
18. CCN(CC)CCNC(=O)Nc1snc(OCc2cccnc2)c1C(N)=O [Example 17, 5-[3-(2-Diethylamino-ethyl)-ureido]-3-(pyridin-3-ylmethoxy)-isothiazole-4-carboxylic acid amide]  1940 nM
19. CCOc1cc(CCNC(=O)Nc2snc(OCc3cccnc3)c2C(N)=O)ccc1OC [Example 8, 5-{3-[2-(3-Ethoxy-4-methoxy-phenyl)-ethyl]-ureido}-3-(pyridin-3-ylmethoxy)-isothiazole-4-carboxylic acid amide]  1970 nM
20. COc1cccc(CCNC(=O)Nc2snc(OCc3cccnc3)c2C(N)=O)c1 [Example 10, 5-{3-[2-(3-Methoxy-phenyl)-ethyl]-ureido}-3-(pyridin-3-ylmethoxy)-isothiazole-4-carboxylic acid amide]  2120 nM
21. NC(=O)c1c(OCc2cccnc2)nsc1NC(=O)NCCc1cccc(Cl)c1 [Example 9, 5-{3-[2-(3-Chloro-phenyl)-ethyl]-ureido}-3-(pyridin-3-ylmethoxy)-isothiazole-4-carboxylic acid amide]  2260 nM
22. NC(=O)c1c(OCc2cccnc2)nsc1NC(=O)NCCc1ccccc1Cl [Example 11, 5-{3-[2-(2-Chloro-phenyl)-ethyl]-ureido}-3-(pyridin-3-ylmethoxy)-isothiazole-4-carboxylic acid amide]  2990 nM
23. NC(=O)c1c(OCc2cccnc2)nsc1NC(=O)NCCc1ccccc1F [Example 12, 5-{3-[2-(2-Fluoro-phenyl)-ethyl]-ureido}-3-(pyridin-3-ylmethoxy)-isothiazole-4-carboxylic acid amide]  3120 nM
24. CC(Oc1nsc(NC(=O)NCc2ccccn2)c1C(N)=O)c1cccnc1 (stereo not drawn) [Example 25, 3-(1-Pyridin-3-yl-ethoxy)-5-(3-pyridin-2-ylmethyl-ureido)-isothiazole-4-carboxylic acid amide]  7390 nM
